# Data: patent US9725449B2, “Tricyclic compounds as anticancer agents” (BRISTOL-MYERS SQUIBB COMPANY, priority 2015, dated 2017)
# Biological target: BRD4 (Homo sapiens, UniProt O60885)
# Test: Time resolved fluorescence resonance energy transfer (TR-FRET) binding assay, bromodomain BRD4
# Details: one of the FRET assays described; read-out: FRET BRD4 IC50
row,SMILES,IC50 [nM]
1,"Cc1nnn(C)c1-c1ccc2c3ncc(N4CCS(=O)(=O)CC4)cc3n([C@H](c3ccccc3)C3CCOCC3)c2n1 [Example 381, 4-[11-(Dimethyl-1H-1,2,3-triazol-5-yl)-8-[(S)-oxan-4-yl(phenyl)methyl]-3,8,10-triazatricyclo[7.4.0.0^2,^7]trideca-1(9),2(7),3,5,10,12-hexaen-5-yl]-1λ^6,4-thiomorpholine-1,1-dione]",< 10
2,CC(=O)c1cnc2c3ccc(-c4c(C)nnn4C)nc3n([C@H](c3ccccc3)C3CCOCC3)c2c1 [Example 379],< 1
3,"C=C(OCC)c1ccc2c3ncc(-c4c(C)nnn4C)cc3n([C@H](c3ccccc3)C3CCOCC3)c2n1 [Example 170, 5-(Dimethyl-1H-1,2,3-triazol-5-yl)-1-(1-ethoxyethenyl)-8-[(S)-oxan-4-yl(phenyl)methyl]-3,8,10-triazatricyclo[7.4.0.0^2,^7]trideca-1(9),2(7),3,5,10,12-hexaene]",< 10
4,"[2H]C([2H])([2H])c1nnn(C)c1-c1cnc2c3c(OCC)ncc(S(C)(=O)=O)c3n(C(c3ncccc3F)C3CCOCC3)c2c1 (stereo not shown) [Example 68, 13-Ethoxy-8-[(3-fluoropyridin-2-yl)(oxan-4-yl)methyl]-10-methanesulfonyl-5-[4-(^2H3)methyl-1-methyl-1H-1,2,3-triazol-5-yl]-3,8,12-triazatricyclo[7.4.0.0^2,^7]trideca-1(13),2(7),3,5,9,11-hexaene]",< 1
5,"[2H]C([2H])([2H])c1nnn(C)c1-c1cnc2c3c(N(C)C(C)C)ncc(S(C)(=O)=O)c3n([C@H](c3ccccc3)C3CCOCC3)c2c1 [Example 116, 10-Methanesulfonyl-N-methyl-5-[4-(^2H3)methyl-1-methyl-1H-1,2,3-triazol-5-yl]-8-[(S)-oxan-4-yl(phenyl)methyl]-N-(propan-2-yl)-3,8,12-triazatricyclo[7.4.0.0^2,^7]trideca-1(13),2(7),3,5,9,11-hexaen-13-amine]",< 1
6,"[2H]C([2H])([2H])c1nnn(C)c1-c1cnc2c3c(OCC(C)C)ncc(S(C)(=O)=O)c3n([C@H](c3ccccc3)C3CCOCC3)c2c1 [Example 108, 10-Methanesulfonyl-5-[4-(^2H3)methyl-1-methyl-1H-1,2,3-triazol-5-yl]-13-(2-methylpropoxy)-8-[(S)-oxan-4-yl(phenyl)methyl]-3,8,12-triazatricyclo[7.4.0.0^2,^7]trideca-1(13),2(7),3,5,9,11-hexaene]",< 10
7,"[2H]C([2H])([2H])c1nnn(C)c1-c1cnc2c3ccc(-c4c(C([2H])([2H])[2H])nnn4C)nc3n(C(c3ncccc3F)C3CCOCC3)c2c1 (stereo not shown) [Example 248, 8-[(3-Fluoropyridin-2-yl)(oxan-4-yl)methyl]-5,11-bis[4-(^2H3)methyl-1-methyl-1H-1,2,3-triazol-5-yl]-3,8,10-triazatricyclo[7.4.0.0^2,^7]trideca-1(13),2(7),3,5,9,11-hexaene]",< 10
8,"[2H]C([2H])([2H])Oc1ncc(S(C)(=O)=O)c2c1c1ncc(-c3c(C)noc3C([2H])([2H])[2H])cc1n2[C@H](c1ccccc1)C1CCOCC1 [Example 54, 10-Methanesulfonyl-13-(^2H3)methoxy-5-[5-(^2H3)methyl-3-methyl-1,2-oxazol-4-yl]-8-[(S)-oxan-4-yl(phenyl)methyl]-3,8,12-triazatricyclo[7.4.0.0^2,^7]trideca-1(13),2(7),3,5,9,11-hexaene]",< 10
9,Cc1noc(C)c1-c1cnc2c3cnc(C(C)(C)O)cc3n([C@H](c3ccccc3)C3CCOCC3)c2c1 [Example 335],< 10
10,"Cc1nnn(C)c1-c1cnc2c3ccc(N4CC(C)S(=O)(=O)C(C)C4)nc3n([C@H](c3ccccc3)C3CCOCC3)c2c1 (single isomer, unassigned) [Example 191]",< 1
